These are literature values, as cited in US20170112856A1, “PHARMACEUTICAL COMPOSITION FOR TREATING CANCER IN AN INDIVIDUAL SUBJECT SUFFERING CANCER” (MA SHEN KAI RUEI CO., LTD., priority 2015, published 2017).

Data set [1] relates to murine macrophages RAW264.7. Particulars: LPS-induction.
In data set [2] the test system is human colorectal cancer cells (COLO 205).
For data set [3], the system named is normal intestinal epithelial cells (FHC cells).
The subject of data set [4] is human HL60 leukemia cells.

As to “4-acetyl-Antroquinonol B [Composition 4-acetyl-AQB]”, in data set [1], the “amount of free radicals of nitric oxide” value was “effectively reducing”.

As to `Cc1cc(O)c2c(c1O)OCO2` [2,3-(methylenedioxy)-6-methyl-benzene-1,4-diol], in data set [1], the “amount of free radicals of nitric oxide” value is recorded as “effectively reducing”.

For the compound `COc1cc(C)c(O)c(OC)c1O` [2,4-dimethoxy-6-methyl-benzene-1,3-diol], the “amount of free radicals of nitric oxide” value in data set [1] is “effectively reducing”.

Take `COc1cc(C)c(OC)c2c1OCO2` [SY-1]: the “programmed death of cell” value in data set [2] (COLO 205, higher doses) was “induce programmed death of cell”. For the same compound, the cell cycle entry in data set [2] (COLO 205, lower doses) is “remain in the G0/G1 phase”. The “impact on normal cells” value in data set [3] is recorded as “does not have an impact”.

`C=C(CC[C@@H](C)[C@H]1CC[C@H]2C3=C(C(=O)C[C@]12C)[C@@]1(C)CCC(=O)[C@@H](C)C1CC3=O)C(C)C(=O)O` (stereo partly drawn) [Zhankuic acid A, 4 α-methylergost-8,24(28)-dien-3,7,11-trion-26-oic acid]: the apoptosis entry in data set [4] is reported as “inducing apoptosis”.

On to Antroquinonol B [AQB], for which, in data set [1], the “amount of free radicals of nitric oxide” value was “effectively reducing”.
